The record followed here is PMC7146288, “Microwave Assisted Synthesis of 4-Phenylquinazolin-2(1H)-one Derivatives that Inhibit Vasopressor Tonus in Rat Thoracic Aorta” (Molecules, 2020).

Molecules are shown by their SMILES. “Also recorded” adds a separate entry of the source.

The subject of data set [1] is rat thoracic aorta rings, endothelium-intact (E+). Briefly: Vascular reactivity: vasorelaxation in endothelium-intact (E+) aortic rings pre-contracted with Phe 1 µM. Also on record: species or system Male Wistar normotensive rats (Rattus norvegicus). The conditions noted are these: for IC50: Rattus norvegicus, rings pre-contracted with Phe 1 µM, cumulative 1-30 µM, mean ± SEM, read-out: IC50 vasorelaxation response in endothelium-intact (E+) aorta arterial vessels; for relaxation at the highest concentration: 30 μM, endothelium-intact aorta rings pre-contracted with Phe 1 µM. How it is done: (§1) All compounds were dissolved with DMSO 100% to obtain a stock solution of 10 mM. In all experiments, the stock solution was employed to obtain a final concentration diluted in Krebs Henseleit solution (vascular reactivity assay) and DMEM supplemented with 10% FBS (cytotoxicity assay).
Male Wistar normotensive rats (Rattus norvegicus) weighing between 200 and 300 grams were supplied by the Central Animal Facility of Fluminense Federal University (NAL-UFF) (Rio de Janeiro, Brazil). The animals were kept in standard environmental conditions of temperature (22 ± 1 °C) and 12 h light/dark cycle, with free access to food (Purina, Brazil) and water. All experiments were conducted in accordance to the guidelines established by National Council for Animal Experimentation Control (CONCEA, Brazil). This study was approved by the Ethics Committee in the Use of Animals of the Fluminense Federal University (CEUA-UFF), certificate under protocol number: 795/2017.
(§2) Animals were anesthetized by isoflurane (1% mg/kg) inhalation and, after the loss of motor control, rats were euthanized by cervical dislocation. Subsequently, the thoracic aorta was dissected and cleaned of connective tissue to obtain rings 4 mm in length that were suspended in a 15 mL organ bath (Panlab four chamber organ bath, AD-Instruments, Sydney, Australia). Tissues were kept in Krebs Henseleit solution at 37 °C with the following composition (mM): NaCl 120; KCl 5.0; MgCl2 1.1; CaCl2 2.5; NaH2PO4 1.2; N-[2-hydroxyethyl] piperazine-N’-[2-ethane-sulfonic acid] (HEPES) 10; NaHCO3 15; and glucose 11, bubbled constantly with a gas mixture of 95% O2 and 5% CO2 (pH 7.4). Each arterial segment was suspended between two steel hooks connected to an isometric transducer to measure tension through a data acquisition system (PowerLab 8 and LabChart Pro, AD-Instruments, Australia). […] Functional endothelial integrity was assessed by the ability of 10 µM ACh to induce ≥70% relaxation in vessels pre-contracted with 1 µM Phe.
Values are expressed as mean ± standard error of mean (SEM). A P-value less than 0.05 was termed statistically significant. The IC50 values (defined as the concentration of the test compound that reduced 50% of the maximal contraction) were obtained by actual concentration-response curve fitting using GraphPad Prism 6.0 software (GraphPad Software, San Diego, CA). Statistical significance was determined using Bonferroni´s multiple comparison for vascular reactivity experiments and using Turkey´s multiple comparison for cytotoxicity evaluation following two-way analysis of variance (ANOVA).
Figure 3 Concentration-response curves for compounds 2a–f and control (vehicle: DMSO) in intact endothelium aortic rings pre-contracted with Phe 1 µM. Cumulative concentrations (1 µM, 3 µM, 10 µM and 30 µM) were added to the Phe contraction plateau. DMSO was employed at the same volume used to dissolve the compound stock solution (maximum final concentration at 0.3%). All data are expressed as mean ± standard error of the mean (SEM) (n = 4–5). (* P < 0.05; *** P < 0.001; **** P < 0.0001 compound vs. control).

The subject of a further data set is VERO cells. Description: MTT cell viability (cytotoxicity) assay. The conditions noted are these: 30 µM, 48 h exposure. Type of data set: cell-based, African Green monkey (Cercopithecus aethiops). The method, then: as §1
(§3) A 3-[4,5-dimehyl-2-thiazolyl]-2,5-diphenyl-2H-tetrazoliumbromide (MTT) assay was employed to assess the general cytotoxicity for 4-phenylquinazolin-2(1H)-one derivatives. […]
(§4) The MTT cell viability assay investigates the number of viable cells by measuring the mitochondrial-dependent reduction of water-soluble tetrazolium into an insoluble formazan product. The absorbance obtained is directly proportional to the activity of functional mitochondria and represents the number of viable cells. […] Absorbance was measured with a plate reader (SpectraMax 190, CA, USA) at a wavelength of 550 nm and expressed as a percentage of the control (vehicle).
(§5) Figure 5 Cell viability assessed by the MTT method on the VERO cell line after 48 h of exposure to the compounds. […] All data are expressed as mean ± standard error of the mean (SEM) (n = 22–25). […]

A short description of data set [2]: MTT cell viability (cytotoxicity) assay. Type of data set: cell-based, African Green monkey (Cercopithecus aethiops). The conditions noted are these: African green monkey (Cercopithecus aethiops), VERO kidney cells, 48 h exposure, % of vehicle control, read-out: percentage of cell viability (living cells). How it is done: as §1, §3, §4, §5
Data set [3] has as its system rat thoracic aorta rings, endothelium-denuded (E−). Description: Vascular reactivity: vasorelaxation in endothelium-denuded (E−) aortic rings pre-contracted with Phe 1 µM. Also on record: species or system Male Wistar normotensive rats (Rattus norvegicus). The note with it: endothelium-denuded rings pre-contracted with Phe 1 µM; cumulative up to 30 µM. The method, then: A representative record of cumulative concentrations of compound 2f (1 μM, 3 μM, 10 μM and 30 μM) on aortic rings endothelium-intact and endothelium-denuded pre-contracted with Phe 1 μM are shown in Figure 4. Phe induced a steady tone in both preparations that were greater in endothelium denuded rings.
as §2, with “7.4).” for “7.4). Each arterial segment was suspended between two steel hooks connected to an isometric transducer to measure tension through a data acquisition system (PowerLab 8 and LabChart Pro, AD-Instruments, Australia).”
Figure 4 Concentration-response curves of compound 2f in endothelium-intact (E+) and endothelium-denuded (E−) aortic rings pre-contracted with Phe 1 µM. […] All data are expressed as mean ± standard error of the mean (SEM) (n = 4). […]

For the compound `O=c1nc(-c2ccccc2)c2ccccc2[nH]1` [Compound 2a], the IC50 in data set [1] is 39.7 ± 6.77 µM.

In the case of `O=c1nc(-c2ccccc2)c2cc([N+](=O)[O-])ccc2[nH]1` [Compound 2b], the “cytotoxicity according to ISO 10993: 5 (viability below 70% = cytotoxic)” value in the data set on VERO cells is on record as “cytotoxic; also recorded: induced cytotoxicity”. Moreover, the viability at 48 h, 30 µM in data set [2] amounted to 69%. Also, the IC50 in data set [1] was determined as 16.4 ± 3.5 µM.

As for `Cc1ccccc1-c1nc(=O)[nH]c2ccc(Cl)cc12` [Compound 2c], in data set [1], the “relaxation at the highest concentration” value is recorded as “around 90%” and the IC50 is 4.31 ± 0.9 µM.

Consider `O=c1nc(-c2ccccc2F)c2cc(Cl)ccc2[nH]1` [Compound 2d], for which, in data set [1], the IC50 turned out to be 26.5 ± 8.98 µM.

For the compound `O=c1nc(-c2ccccc2)c2cc(Br)ccc2[nH]1` [Compound 2e], in data set [1], the “relaxation at the highest concentration” value was “around 90%” and the IC50 worked out at 4.94 ± 1.21 µM.

Turning to `Cn1c(=O)nc(-c2ccccc2)c2cc(Cl)ccc21` [Compound 2f], the “vasorelaxation in the absence of the endothelium” value in data set [3] is “abolished”. In data set [1], the “relaxation at the highest concentration” value is “around 90%” and the IC50 worked out at 3.41 ± 0.65 µM.
